Data set [1] in a line: Thermodynamic solubility in water from powder (Method 4b). In kind it is physicochemical. Conditions: phosphate buffer, aqueous buffer, thermodynamic from solid; pH 6.5, Method 4b. How it is done:
4b) Thermodynamic Solubility in Water from Powder
The thermodynamic solubility of compounds in water was determined by an equilibrium shake flask method (see for example: E. H. Kerns, L. Di: Drug-like Properties: Concepts, Structure Design and Methods, 276-286, Burlington, Mass., Academic Press, 2008). A saturated solution of the drug was prepared and the solution was mixed for 24 h to ensure that equilibrium was reached. The solution was centrifuged to remove the insoluble fraction and the concentration of the compound in solution was determined using a standard calibration curve. To prepare the sample, 2 mg solid compound was weighed in a 4 mL glass vial. 1 mL phosphate buffer pH 6.5 was added. The suspension was stirred for 24 hrs at room temperature. The solution was centrifuged afterwards. To prepare the sample for the standard calibration, 2 mg solid sample was dissolved in 30 mL acetonitrile. After sonification the solution was diluted with water to 50 mL. Sample and standards were quantified by HPLC with UV-detection. For each sample two injection volumes (5 and 50 μl) in triplicates were made. Three injection volumes (5 μl, 10 μl and 20 μl) were made for the standard. […]
The areas of sample- and standard injections as well as the calculation of the solubility value (in mg/l) were determined by using HPLC software (Waters Empower 2 FR).

The test system of data set [2] is HeLa-MaTu-ADR. Nature of the data set: Proliferation assay, crystal violet. It counts as cell-based. Conditions: Homo sapiens, 96 h, 4 days, read-out: Inhibition of HeLa-MaTu-ADR cell proliferation IC50. How it is done:
Cultivated tumour cells (HeLa, human cervical tumour cells, ATCC CCL-2; NCI—H460, human non-small cell lung carcinoma cells, ATCC HTB-177; DU 145, hormone-independent human prostate carcinoma cells, ATCC HTB-81; HeLa-MaTu-ADR, multidrug-resistant human cervical carcinoma cells, EPO-GmbH Berlin; Caco-2, human colorectal carcinoma cells, ATCC HTB-37; B16F10, mouse melanoma cells, ATCC CRL-6475) were plated at a density of 3,500 cells/well (DU145), 3,000 cells/well (HeLa-MaTu-ADR), 1,500 cells/well (NCI—H460), 3,000 cells/well (HeLa), 2,000 cells/well (Caco-2), or 1,000 cells/well (B16F10) in a 96-well multititer plate in 150 μL of their respective growth medium supplemented 10% fetal calf serum. After 24 hours, the cells of one plate (zero-point plate) were stained with crystal violet (see below), the test substances were added in various concentrations (0 μM, as well as in the range of 0.0001-10 μM) employing HP Dispenser. The cells were incubated for 4 days in the presence of test substances. Cell proliferation was determined by staining the cells with crystal violet: the cells were fixed by adding 20 μl/measuring point of an 11% glutaric aldehyde solution for 15 minutes at room temperature. After three washing cycles of the fixed cells with water, the plates were dried at room temperature. The cells were stained by adding 100 μl/measuring point of a 0.1% crystal violet solution DU 145, Caco-2, HeLa (pH 4.5) B16F10, NCI—H460, HeLa-MaTu-ADR. After three washing cycles of the stained cells with water, the plates were dried at room temperature. The dye was dissolved by adding 100 μl per measuring point of a 10% acetic acid solution. The extinction was determined by photometry at a wavelength of 595/550/620 nm depending on the intensity of coloration, usually at 595 nm. The change of cell number, in percent, was calculated by normalization of the measured values to the extinction values of the zero-point plate (=0%) and the extinction of the untreated (0 μM) cells (=100%). The IC50 values (inhibitory concentration at 50% of maximal effect) were determined by means of a 4 parameter fit.

Each structure is given as a SMILES string. ≈ marks a conversion by molar mass, not a printed value.

What is called solubility (thermodynamic) is solubility found after equilibrating the solid with the medium. On to `CS(=N)(=N)Cc1cc2cc(c1)OCCCCOc1cc(F)ccc1-c1nc(ncc1F)N2` [Example 5, 16,20-difluoro-9-[(S-methylsulfonodiimidoyl)methyl]-2,3,4,5-tetrahydro-12H-13,17-(azeno)-11,7-(metheno)-1,6,12,14-benzodioxadiazacyclononadecine], for which the solubility (thermodynamic) at 24 h in data set [1] was determined as 58 µg/mL (≈ 126 µM).
`CS(=N)(=N)Cc1cc2nc(c1)OCCCOc1cc(F)ccc1-c1cc(ncc1F)N2` [Example 1, 15,19-difluoro-8-[(S-methylsulfonodiimidoyl)methyl]-3,4-dihydro-2H,11H-10,6-(azeno)-12,16-(metheno)-1,5,11,13-benzodioxadiazacyclooctadecine]: in data set [2], the IC50 was found to be 7.8 nM.

These data come from patent publication US10717749B2, “Macrocyclic sulfondiimine compounds” (BAYER PHARMA AKTIENGESELLSCHAFT, priority 2015, dated 2020).
